Results reported in ChEMBL document CHEMBL1201862, “PubChem BioAssay data set” (2004).
The source made the active and inactive calls.

Assays:
HEK293 = test: EBV LMP1 TES2 canonical NF-kB signalling blockers – cell-based, HEK293, luciferase, cherry-pick, dose response (AID 588343); format: functional; details: Homo sapiens
[1] = molecular target: Peroxisome proliferator-activated receptor gamma/Nuclear receptor coactivator 1 (Homo sapiens, UniProt P37231); format: functional;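 also: agonist potency as compounds enhance coactivator SRC-1 recruitment to PPARgamma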
[2] = molecular target: Peroxisome proliferator-activated receptor gamma/Nuclear receptor coactivator 2 (Homo sapiens, UniProt P37231); format: functional;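 also: agonist potency for raising coactivator recruitment to the receptor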
[3] = molecular target: Peroxisome proliferator-activated receptor gamma/Nuclear receptor coactivator 3 (Homo sapiens, UniProt P37231); format: functional;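 also: agonist potency for raising coactivator recruitment to the receptor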
Chain of Peroxisome proliferator-activated receptor gamma/Nuclear receptor coactivator 3 (P37231 whole entry): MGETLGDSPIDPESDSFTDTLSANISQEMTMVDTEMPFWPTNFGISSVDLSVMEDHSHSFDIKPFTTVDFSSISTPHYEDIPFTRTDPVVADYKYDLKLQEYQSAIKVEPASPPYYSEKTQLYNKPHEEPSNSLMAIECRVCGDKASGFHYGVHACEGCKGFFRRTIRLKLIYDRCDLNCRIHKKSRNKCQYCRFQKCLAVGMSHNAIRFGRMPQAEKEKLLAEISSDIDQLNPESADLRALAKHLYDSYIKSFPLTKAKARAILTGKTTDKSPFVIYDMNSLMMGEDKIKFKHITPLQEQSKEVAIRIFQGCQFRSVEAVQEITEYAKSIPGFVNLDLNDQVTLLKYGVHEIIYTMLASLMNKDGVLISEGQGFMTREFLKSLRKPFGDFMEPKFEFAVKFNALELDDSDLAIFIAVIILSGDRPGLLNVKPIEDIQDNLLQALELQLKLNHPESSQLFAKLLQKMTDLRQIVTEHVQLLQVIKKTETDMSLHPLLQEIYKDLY
Chain of Peroxisome proliferator-activated receptor gamma/Nuclear receptor coactivator 3 (Q9Y6Q9 whole entry, further chain): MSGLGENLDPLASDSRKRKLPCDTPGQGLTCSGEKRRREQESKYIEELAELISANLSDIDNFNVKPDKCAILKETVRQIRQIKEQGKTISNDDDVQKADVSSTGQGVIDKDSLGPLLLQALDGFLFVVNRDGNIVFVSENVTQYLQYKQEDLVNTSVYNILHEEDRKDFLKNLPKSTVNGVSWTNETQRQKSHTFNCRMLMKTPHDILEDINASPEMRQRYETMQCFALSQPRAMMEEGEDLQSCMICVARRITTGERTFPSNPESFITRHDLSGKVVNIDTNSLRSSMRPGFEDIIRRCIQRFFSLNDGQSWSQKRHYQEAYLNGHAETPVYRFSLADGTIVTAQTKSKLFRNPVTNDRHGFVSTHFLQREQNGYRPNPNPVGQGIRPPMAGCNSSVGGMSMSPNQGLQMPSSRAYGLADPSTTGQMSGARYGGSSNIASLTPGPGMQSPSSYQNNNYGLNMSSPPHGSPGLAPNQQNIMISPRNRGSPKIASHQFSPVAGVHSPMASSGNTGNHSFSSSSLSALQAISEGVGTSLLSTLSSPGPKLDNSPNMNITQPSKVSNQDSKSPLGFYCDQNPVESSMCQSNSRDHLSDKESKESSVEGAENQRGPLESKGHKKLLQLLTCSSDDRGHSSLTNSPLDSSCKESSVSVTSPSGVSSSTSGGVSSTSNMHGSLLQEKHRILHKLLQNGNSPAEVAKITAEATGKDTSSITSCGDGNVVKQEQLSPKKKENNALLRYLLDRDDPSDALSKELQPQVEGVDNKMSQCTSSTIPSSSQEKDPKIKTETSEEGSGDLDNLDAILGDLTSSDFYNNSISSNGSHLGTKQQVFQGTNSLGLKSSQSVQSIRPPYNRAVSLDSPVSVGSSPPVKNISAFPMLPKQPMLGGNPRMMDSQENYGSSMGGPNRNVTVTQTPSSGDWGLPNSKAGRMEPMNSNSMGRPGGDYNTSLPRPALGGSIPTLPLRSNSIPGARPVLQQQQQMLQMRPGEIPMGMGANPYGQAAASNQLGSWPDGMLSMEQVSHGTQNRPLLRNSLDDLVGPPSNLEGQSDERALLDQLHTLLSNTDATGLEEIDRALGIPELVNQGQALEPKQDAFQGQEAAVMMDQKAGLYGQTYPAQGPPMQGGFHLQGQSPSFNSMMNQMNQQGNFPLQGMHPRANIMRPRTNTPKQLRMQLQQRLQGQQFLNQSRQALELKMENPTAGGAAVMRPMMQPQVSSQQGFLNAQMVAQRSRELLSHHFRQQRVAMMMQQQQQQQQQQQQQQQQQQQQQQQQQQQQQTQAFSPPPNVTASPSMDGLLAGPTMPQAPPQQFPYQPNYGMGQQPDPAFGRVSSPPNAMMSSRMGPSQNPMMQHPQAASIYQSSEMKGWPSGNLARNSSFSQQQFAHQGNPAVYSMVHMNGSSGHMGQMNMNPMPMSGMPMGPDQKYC

[4] = molecular target: T1, Histone-lysine N-methyltransferase NSD2 (Homo sapiens, UniProt O96028); format: biochemical
T1 sequence (O96028 whole entry): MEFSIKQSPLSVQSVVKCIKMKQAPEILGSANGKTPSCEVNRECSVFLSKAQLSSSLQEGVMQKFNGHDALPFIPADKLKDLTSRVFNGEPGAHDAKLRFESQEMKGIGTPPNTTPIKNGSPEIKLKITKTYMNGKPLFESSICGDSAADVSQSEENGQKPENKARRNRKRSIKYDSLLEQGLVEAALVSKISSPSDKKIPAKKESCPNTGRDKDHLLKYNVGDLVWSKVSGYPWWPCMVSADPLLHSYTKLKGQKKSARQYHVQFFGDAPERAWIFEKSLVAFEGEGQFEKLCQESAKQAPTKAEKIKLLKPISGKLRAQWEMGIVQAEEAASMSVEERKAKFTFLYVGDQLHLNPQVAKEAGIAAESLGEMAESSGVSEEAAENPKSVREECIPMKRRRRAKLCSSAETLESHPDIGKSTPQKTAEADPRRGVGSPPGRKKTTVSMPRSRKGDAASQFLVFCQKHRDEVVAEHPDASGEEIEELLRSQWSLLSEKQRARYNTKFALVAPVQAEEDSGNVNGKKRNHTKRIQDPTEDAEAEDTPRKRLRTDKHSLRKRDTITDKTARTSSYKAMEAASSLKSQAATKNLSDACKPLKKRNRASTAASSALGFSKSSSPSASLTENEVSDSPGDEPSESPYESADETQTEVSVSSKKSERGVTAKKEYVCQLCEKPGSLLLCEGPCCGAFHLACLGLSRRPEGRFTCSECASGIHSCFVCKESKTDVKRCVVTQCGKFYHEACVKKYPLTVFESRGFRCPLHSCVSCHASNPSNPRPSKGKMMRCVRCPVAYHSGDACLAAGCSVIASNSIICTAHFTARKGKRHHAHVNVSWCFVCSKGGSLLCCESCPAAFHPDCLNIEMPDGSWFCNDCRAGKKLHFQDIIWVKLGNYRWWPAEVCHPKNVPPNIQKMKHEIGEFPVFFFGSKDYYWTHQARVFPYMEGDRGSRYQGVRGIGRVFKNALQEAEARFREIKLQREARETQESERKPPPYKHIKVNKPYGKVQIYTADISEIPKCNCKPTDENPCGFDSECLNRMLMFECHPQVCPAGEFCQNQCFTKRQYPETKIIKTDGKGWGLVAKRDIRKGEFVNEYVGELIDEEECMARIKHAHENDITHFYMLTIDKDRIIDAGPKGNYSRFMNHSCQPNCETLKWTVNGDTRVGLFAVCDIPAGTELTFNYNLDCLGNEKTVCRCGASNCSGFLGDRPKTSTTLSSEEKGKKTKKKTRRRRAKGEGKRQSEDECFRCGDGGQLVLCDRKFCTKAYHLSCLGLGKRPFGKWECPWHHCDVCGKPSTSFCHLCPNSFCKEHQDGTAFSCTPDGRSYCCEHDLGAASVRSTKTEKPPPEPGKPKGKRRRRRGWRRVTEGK

[5] = NIH3T3 cell viability loss – ATP luminescence, mouse fibroblasts, counter-screen, dose response (AID 2010); format: functional, cell-based;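 also: cells exposed to compound for about 90 hours before reading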
[6] = Trypanosoma cruzi growth suppression in host cells – NIH3T3 host cells, beta-gal luminescence, confirmation (AID 2044); format: functional, cell-based;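 also: intracellular parasites grown in NIH/3T3 mouse fibroblasts as host cells; luminescent beta-galactosidase reporter signal from transgenic T. cruzi replicating inside host cells; inhibitors lower the luminescence signal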
SN12K1 = test: cells; format: functional; details: Homo sapiens
P388/ADR = test: cells; format: functional; details: Mus musculus
P388 = test: cells; format: functional; details: Mus musculus
Fatty acid synthase [7] = molecular target: T2, Fatty acid synthase (Homo sapiens, UniProt P49327); test: inhibition of human FAS-TE enzyme activity – biochemical, endpoint fluorescence intensity, uHTS hits, dose response (AID 624327); format: functional;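 also: fluorescence from hydrolysis of an O-methyl fluorescein acyl ester substrate by the enzyme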
T2 sequence (P49327 whole entry): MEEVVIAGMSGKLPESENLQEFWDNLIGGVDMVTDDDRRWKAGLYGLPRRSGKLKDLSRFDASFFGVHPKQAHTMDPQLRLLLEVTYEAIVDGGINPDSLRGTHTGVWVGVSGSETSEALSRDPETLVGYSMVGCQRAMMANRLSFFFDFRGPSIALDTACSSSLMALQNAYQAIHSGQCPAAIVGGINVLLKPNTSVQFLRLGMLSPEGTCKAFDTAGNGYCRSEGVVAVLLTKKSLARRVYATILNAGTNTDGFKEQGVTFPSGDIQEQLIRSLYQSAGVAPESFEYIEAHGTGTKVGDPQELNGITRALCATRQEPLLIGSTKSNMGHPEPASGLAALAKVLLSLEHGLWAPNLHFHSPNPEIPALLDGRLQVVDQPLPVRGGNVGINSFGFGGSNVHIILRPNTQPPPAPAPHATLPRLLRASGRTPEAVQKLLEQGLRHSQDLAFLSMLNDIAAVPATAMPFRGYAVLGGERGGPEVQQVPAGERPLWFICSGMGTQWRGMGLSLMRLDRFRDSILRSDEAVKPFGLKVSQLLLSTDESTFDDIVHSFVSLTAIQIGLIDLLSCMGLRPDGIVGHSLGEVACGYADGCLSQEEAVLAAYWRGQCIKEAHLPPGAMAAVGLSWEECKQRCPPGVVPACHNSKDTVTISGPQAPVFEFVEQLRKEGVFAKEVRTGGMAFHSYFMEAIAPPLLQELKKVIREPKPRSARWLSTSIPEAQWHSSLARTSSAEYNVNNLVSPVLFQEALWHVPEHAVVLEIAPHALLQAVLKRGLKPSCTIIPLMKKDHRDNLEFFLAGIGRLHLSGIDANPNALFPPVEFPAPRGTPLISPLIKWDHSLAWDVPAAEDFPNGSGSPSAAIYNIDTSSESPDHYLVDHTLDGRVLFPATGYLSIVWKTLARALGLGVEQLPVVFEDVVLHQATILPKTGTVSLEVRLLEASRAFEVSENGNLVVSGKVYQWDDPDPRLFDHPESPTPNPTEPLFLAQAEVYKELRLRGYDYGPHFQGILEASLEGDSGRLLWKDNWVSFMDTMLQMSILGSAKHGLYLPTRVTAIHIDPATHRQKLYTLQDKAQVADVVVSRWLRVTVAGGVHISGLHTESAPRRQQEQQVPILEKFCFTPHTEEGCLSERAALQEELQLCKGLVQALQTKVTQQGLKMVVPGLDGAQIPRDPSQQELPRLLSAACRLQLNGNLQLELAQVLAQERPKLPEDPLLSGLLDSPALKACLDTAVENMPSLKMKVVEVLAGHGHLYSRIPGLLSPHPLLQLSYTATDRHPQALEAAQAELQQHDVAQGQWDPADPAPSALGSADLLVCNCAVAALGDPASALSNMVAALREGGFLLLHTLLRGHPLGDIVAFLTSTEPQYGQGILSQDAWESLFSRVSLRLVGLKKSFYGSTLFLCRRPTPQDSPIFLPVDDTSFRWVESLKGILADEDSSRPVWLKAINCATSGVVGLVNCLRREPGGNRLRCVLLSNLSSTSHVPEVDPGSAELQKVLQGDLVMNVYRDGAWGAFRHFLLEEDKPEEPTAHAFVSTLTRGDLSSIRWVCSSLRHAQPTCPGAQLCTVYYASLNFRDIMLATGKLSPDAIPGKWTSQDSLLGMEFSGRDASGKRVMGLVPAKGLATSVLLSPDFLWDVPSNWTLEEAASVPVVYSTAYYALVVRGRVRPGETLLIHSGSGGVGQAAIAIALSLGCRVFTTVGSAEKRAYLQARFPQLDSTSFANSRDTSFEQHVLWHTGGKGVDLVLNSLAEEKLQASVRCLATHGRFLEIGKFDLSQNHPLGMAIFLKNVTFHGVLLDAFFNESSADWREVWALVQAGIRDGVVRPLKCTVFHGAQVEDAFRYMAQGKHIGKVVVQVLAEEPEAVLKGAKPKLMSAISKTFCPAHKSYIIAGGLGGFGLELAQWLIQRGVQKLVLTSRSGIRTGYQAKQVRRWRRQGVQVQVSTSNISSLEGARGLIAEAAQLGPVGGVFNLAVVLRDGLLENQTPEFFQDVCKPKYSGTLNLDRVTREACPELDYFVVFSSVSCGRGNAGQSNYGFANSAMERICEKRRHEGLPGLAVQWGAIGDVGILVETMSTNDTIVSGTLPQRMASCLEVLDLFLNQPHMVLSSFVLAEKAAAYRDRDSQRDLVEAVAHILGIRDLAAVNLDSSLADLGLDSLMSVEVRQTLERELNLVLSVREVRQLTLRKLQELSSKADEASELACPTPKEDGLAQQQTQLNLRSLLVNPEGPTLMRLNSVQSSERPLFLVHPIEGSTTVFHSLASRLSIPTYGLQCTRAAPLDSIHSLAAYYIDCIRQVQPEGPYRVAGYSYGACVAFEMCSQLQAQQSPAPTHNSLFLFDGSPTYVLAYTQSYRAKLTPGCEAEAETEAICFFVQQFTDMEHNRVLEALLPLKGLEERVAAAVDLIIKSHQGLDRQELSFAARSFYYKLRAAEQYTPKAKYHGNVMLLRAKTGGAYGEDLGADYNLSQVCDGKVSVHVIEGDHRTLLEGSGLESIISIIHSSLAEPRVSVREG

Fatty acid synthase [8] = molecular target: T2, Fatty acid synthase; test: inhibition of human FAS-TE enzyme activity – biochemical, kinetic fluorescence intensity, dose response (AID 624326); format: functional;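 also: rate of fluorescence rise from hydrolysis of a fluorogenic O-methyl fluorescein ester substrate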
[9] = molecular target: T3, Ubiquitin-conjugating enzyme E2 N (Homo sapiens, UniProt P61088); format: functional;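 also: Dose-response confirmation in a TR-FRET assay detecting UBC13-driven polyubiquitin chain formation, inhibition measured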
T3 sequence (P61088 whole entry): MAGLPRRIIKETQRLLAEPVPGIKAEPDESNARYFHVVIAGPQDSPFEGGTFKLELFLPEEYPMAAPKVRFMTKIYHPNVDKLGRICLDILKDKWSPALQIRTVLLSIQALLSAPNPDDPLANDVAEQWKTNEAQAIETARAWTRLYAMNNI

[10] = molecular target: T4, Heat shock factor protein 1 (Mus musculus, UniProt P38532); test: enhancement of HSF1-driven luciferase signal – cell-based, NIH3T3, luminescence, dose retest, confirmation (AID 435004); format: functional;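 also: stress induced by proteasome inhibitor MG132 added 30 min after compound; luciferase reporter driven by HSF1 response element in NIH3T3 cells; actives raise luminescence as potentiators of the MG132 stress response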
T4 sequence (P38532 whole entry): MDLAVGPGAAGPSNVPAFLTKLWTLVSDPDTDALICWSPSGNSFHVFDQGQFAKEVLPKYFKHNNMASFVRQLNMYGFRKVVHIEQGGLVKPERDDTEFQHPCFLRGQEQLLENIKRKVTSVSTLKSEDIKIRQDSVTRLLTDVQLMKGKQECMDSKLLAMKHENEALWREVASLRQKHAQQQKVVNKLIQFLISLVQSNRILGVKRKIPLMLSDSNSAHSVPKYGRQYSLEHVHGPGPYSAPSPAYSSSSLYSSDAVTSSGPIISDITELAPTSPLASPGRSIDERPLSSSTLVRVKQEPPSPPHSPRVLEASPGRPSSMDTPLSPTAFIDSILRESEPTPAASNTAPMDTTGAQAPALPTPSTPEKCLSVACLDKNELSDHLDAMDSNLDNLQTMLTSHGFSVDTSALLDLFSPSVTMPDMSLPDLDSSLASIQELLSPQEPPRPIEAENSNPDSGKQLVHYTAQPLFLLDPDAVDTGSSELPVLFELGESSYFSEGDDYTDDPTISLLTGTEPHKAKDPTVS

[11] = viability of HCT116 lacking mutant beta-catenin – cell-based, human colon tumor, dose response (AID 1045); format: functional;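 also: HCT116 colon tumor cells with beta catenin knocked out; cells exposed to compound for 60 hours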
[12] = viability of PTEN-deleted HCT116 cells – cell-based, HCT116 PTEN knockout, dose response (AID 1047); format: functional;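 also: HCT116 colon tumor cells with PTEN knocked out; cells exposed to compound for 60 hours before readout; potency for loss of cell viability measured by luminescence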
[13] = fluconazole-exposed Candida albicans growth modulators – fluorescence, retest, confirmation (AID 2467); format: functional, cell-based
Nonstructural protein 1 = Nonstructural protein 1 (Influenza A virus, UniProt Q194T2); format: functional, Influenza A virus (A/California/07/2009(H1N1))
Chain of Nonstructural protein 1 (Q194T2 whole entry): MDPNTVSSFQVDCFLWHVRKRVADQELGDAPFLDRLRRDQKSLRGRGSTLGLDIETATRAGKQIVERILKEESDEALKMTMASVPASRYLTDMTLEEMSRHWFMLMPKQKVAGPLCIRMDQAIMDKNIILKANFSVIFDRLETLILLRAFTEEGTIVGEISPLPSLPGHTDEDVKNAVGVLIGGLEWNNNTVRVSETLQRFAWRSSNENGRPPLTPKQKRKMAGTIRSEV

[14] = molecular target: T5, Microphthalmia-associated transcription factor (Homo sapiens, UniProt O75030); test: reducers of TRPM1 reporter luminescence, concentration series – cell-based, SK-MEL-5, cherry-picked, set 3, MITF inhibitor project, dose response (AID 493073); format: functional;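 also: SK-MEL-5 melanoma cells with luciferase driven by the MITF target TRPM1 promoter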
T5 sequence (O75030 whole entry): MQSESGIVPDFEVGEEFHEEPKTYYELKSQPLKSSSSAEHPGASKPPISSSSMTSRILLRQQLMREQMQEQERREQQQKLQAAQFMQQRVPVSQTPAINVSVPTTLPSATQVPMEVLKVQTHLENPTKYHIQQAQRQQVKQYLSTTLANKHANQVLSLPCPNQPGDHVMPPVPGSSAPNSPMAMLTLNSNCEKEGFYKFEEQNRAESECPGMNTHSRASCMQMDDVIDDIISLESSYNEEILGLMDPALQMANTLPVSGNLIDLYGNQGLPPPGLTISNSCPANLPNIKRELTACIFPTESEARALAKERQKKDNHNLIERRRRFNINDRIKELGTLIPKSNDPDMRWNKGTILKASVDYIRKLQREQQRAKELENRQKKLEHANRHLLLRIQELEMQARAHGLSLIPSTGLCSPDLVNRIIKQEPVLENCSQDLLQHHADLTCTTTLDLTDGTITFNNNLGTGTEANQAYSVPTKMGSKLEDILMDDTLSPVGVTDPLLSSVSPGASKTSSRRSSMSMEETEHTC

[15] = NIH-3T3 fibroblast cytotoxicity, dose response, cytotoxicity control, cell-based, fluorescence, Alamar Blue, secondary assay (AID 2327); format: functional;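 also: NIH-3T3 mouse fibroblasts cultured with fluconazole at 8 µg/mL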
INS1 = test: INS-1E survival protection against cytokine death – cell-based, luminescence, retest, dose response (AID 449756); format: functional; details: Rattus norvegicus;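 also: cell death triggered by IL-1 beta plus TNF-alpha plus IFN-gamma mixture; protective hits raise ATP signal compared with cytokine alone wells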
[16] = molecular target: Glyceraldehyde-3-phosphate dehydrogenase (Homo sapiens, UniProt P04406)
Chain of Glyceraldehyde-3-phosphate dehydrogenase (P04406 whole entry): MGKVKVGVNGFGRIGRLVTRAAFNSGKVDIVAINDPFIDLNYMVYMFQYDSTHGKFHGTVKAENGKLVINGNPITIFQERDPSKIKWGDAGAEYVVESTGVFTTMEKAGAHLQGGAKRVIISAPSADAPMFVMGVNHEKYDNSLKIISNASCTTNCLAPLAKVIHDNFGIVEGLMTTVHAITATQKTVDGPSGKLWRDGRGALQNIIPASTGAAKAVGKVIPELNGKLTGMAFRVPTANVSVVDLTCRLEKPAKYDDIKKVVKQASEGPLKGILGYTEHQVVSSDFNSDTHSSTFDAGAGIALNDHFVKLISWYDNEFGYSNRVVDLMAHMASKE

## CCOc1ccc(/C=N/Nc2cc(N3CCOCC3)ncn2)c(O)c1
HEK293
  AC50: 15.5 µM (active)

## CCN(CC)S(=O)(=O)c1cccc(NC(=O)COC(=O)c2nnc(O)c3ccccc23)c1
[1]
  EC50: > 79.4 µM (not active)
[2]
  EC50: > 79.4 µM (not active)
[3]
  EC50: > 79.4 µM (not active)

## CSc1ccccc1C(=O)N1CCC2(CC1)CC(=O)c1ccccc1O2
HEK293
  AC50: 22.5 µM (active)

## NCCc1c(-c2ccccc2)n(-c2ccccc2)c2ccccc12
[4]
  AC50: > 20 µM (inactive)
[5]
  EC50: > 60 µM (inconclusive)
[6]
  EC50: 2.47 µM (active)

## CCCCCCCCCCCCCCCCCCOCC(COCCOCC[N+]1(CCCCCC(=O)[O-])CCCC1)Oc1ncccn1 (stereo not drawn)
SN12K1
  GI50: 4.12 µM (inactive)
P388/ADR
  GI50: 11.2 µM (inactive)
P388
  GI50: 0.288 µM (active)

## O=C(NCCCCc1ccccc1)C1CC(c2cccc([N+](=O)[O-])c2)=NO1 (stereo not drawn)
Fatty acid synthase [7]
  IC50: 3.11 µM (active)
Fatty acid synthase [8]
  IC50: 4.27 µM (active)

## COC(=O)c1c(NC(=O)C(=O)N2CCCC2)sc2c1CC(C)(C)OC2
[9]
  IC50: > 20 µM (inactive)

## COc1ccc(C2COc3cc(O)c(O)cc3C2)cc1 (stereo not drawn)
SN12K1
  GI50: 13.8 µM (inactive)
P388/ADR
  GI50: 1.19 µM (inactive)
P388
  GI50: 1.67 µM (inactive)

## CC(C)(C)OC(=O)[C@H](CCCCN)NC(=O)c1[nH]cnc1C(=O)N[C@@H](Cc1ccccc1)C(=O)OCc1ccccc1
[9]
  IC50: > 20 µM (inactive)

## O=C(c1cnc(-c2ccc(Cl)cc2)s1)c1ccc(Cl)cc1Cl
[1]
  EC50: 30.8 µM (not active)
[2]
  EC50: 18.7 µM (not active)
[3]
  EC50: 38.7 µM (not active)

## CC[C@]1(c2cccc(C)c2)C(=O)N(C(=O)OC)N1C(=O)OC
Fatty acid synthase [7]
  IC50: 9.04 µM (active)
Fatty acid synthase [8]
  IC50: 8.6 µM (active)

## COC(=O)c1ccc(C(=O)OC)c(NC(=O)C(C)(C)C)c1
[1]
  EC50: > 79.4 µM (not active)
[2]
  EC50: > 79.4 µM (not active)
[3]
  EC50: > 79.4 µM (not active)
[10]
  EC50: > 260 µM (inactive)

## CC(C)(C)SCCNC(=O)/C=C/c1cccc([N+](=O)[O-])c1
Fatty acid synthase [7]
  IC50: 4.09 µM (active)
Fatty acid synthase [8]
  IC50: 6.29 µM (active)

## COC1OC(=O)[C@H]2O[N+]([O-])=C(C)[C@@H]12 (stereo partly drawn)
SN12K1
  GI50: > 100 µM (inactive)
P388/ADR
  GI50: > 100 µM (inactive)
P388
  GI50: > 100 µM (inactive)

## Cc1n[nH]c(C)c1S(=O)(=O)N(CC(=O)Nc1ccc2c(c1)OCCO2)c1ccc(C(C)C)cc1
[1]
  EC50: > 79.4 µM (not active)
[2]
  EC50: > 79.4 µM (not active)
[3]
  EC50: > 79.4 µM (not active)

## Cc1ccc([N+](=O)[O-])cc1NC(=O)CN(C(=O)c1ccc(Cl)cc1)C1CCCCC1
Fatty acid synthase [7]
  IC50: 1.18 µM (active)
Fatty acid synthase [8]
  IC50: 1.24 µM (active)
[11]
  EC50: 209 µM (active)
[12]
  EC50: 43.7 µM (active)

## Cc1c2ccncc2cc2c1[nH]c1ccccc12
SN12K1
  GI50: 3.72 µM (inactive)
P388/ADR
  GI50: 2.93 µM (inactive)
P388
  GI50: 1.61 µM (inactive)

## COc1cc(C(=O)Oc2c(CN3CCOCC3)cc(Cl)c3cccnc23)cc(OC)c1OC
[13]
  EC50: 4.15 µM (active)
[11]
  EC50: 2.31 µM (active)
Nonstructural protein 1
  IC50: 19.9 µM (active)
[14]
  AC50: 7.55 µM (active)
[15]
  EC50: > 160 µM (inactive)
[12]
  EC50: 2.71 µM (active)
INS1
  AC50: 4.28 µM (active)

## CCN1CC2CCCC3(C1)C(=O)NC1(CCCCC1)N=C23 (stereo not drawn)
[4]
  AC50: 15 µM (active)

## O=C(O)c1cc(NS(=O)(=O)c2cc([N+](=O)[O-])ccc2Cl)ccc1O
[16]
  IC50: > 100 µM (not active)

## COc1cc([N+](=O)[O-])ccc1S(=O)(=O)Nc1cccnc1
[16]
  IC50: > 100 µM (not active)

## O=C(NCCOc1ccccc1)c1ccc2c(c1)OCO2
HEK293
  AC50: 1.62 µM (active)

## NC1CCCCC1.O=P(O)(O)C(CSc1ccccc1)P(=O)(O)O
SN12K1
  GI50: > 100 µM (inactive)
P388/ADR
  GI50: > 100 µM (inactive)
P388
  GI50: > 100 µM (inactive)

## C/C(=C\COc1ccc2ccc(=O)oc2c1)C1=CC(=O)C(C)(C)O1 [GEIPARVARIN]
SN12K1
  GI50: 3.76 µM (inactive)
P388/ADR
  GI50: 1.44 µM (inactive)
P388
  GI50: 1.9 µM (inactive)

## CCCCOc1ccc(NC2=NC3(CCCC3)N=C(N)N2)cc1
[1]
  EC50: > 79.4 µM (not active)
[2]
  EC50: > 79.4 µM (not active)
[3]
  EC50: > 79.4 µM (not active)

## CC(=O)Nc1ccc(NC(=O)c2ccccc2S(=O)(=O)c2ccc([N+](=O)[O-])cc2)cc1
Fatty acid synthase [7]
  IC50: 13.8 µM (active)
Fatty acid synthase [8]
  IC50: 15.9 µM (active)

## CCn1c2ccccc2c2cc(/C=N/NC(=O)c3ccncc3)ccc21
HEK293
  AC50: 1.46 µM (active)

## Cc1c2ccnc(C(N)=O)c2c(C)c2c1[nH]c1ccccc12
SN12K1
  GI50: 5.46 µM (inactive)
P388/ADR
  GI50: 12.9 µM (inactive)
P388
  GI50: 2.9 µM (inactive)
